In series [1] the test system is Adjuvant Arthritis in Rat. Nature of the series: Effect on adjuvant arthritis in rat (footpad swelling suppression). It is filed as in vivo. To be noted: male Lewis rat, Freund's complete adjuvant; 0.3 mg/kg orally once a day for 14 days; edema volume of left hind paw, Day 14; n=6. Here is the method: Effect on Adjuvant Arthritis in Rat
A male Lewis rat (7-week-old, Crea Japan Ltd.) was sensitized by an intracutaneous injection of 0.05 ml of Freund's complete adjuvant: 0.5% liquid paraffin suspension of dead tubercle bacillus) into the footpad of the right hind paw, and the test compound suspended in 0.5% methyl cellulose was orally administered once a day for 14 days. Immediately before sensitization (Day 0) and 14th day (Day 14), the edema volume of the left hind paw was measured by a plethysmometer (manufactured by Ugo Basile, Italy) and the footpad swelling suppression rate (%) relative to unsensitized rat was determined by the following formula.
The results are shown in mean ±S.E. of each group (n=6) and compared and detected by the Dunnett's method. In addition, less than 5% of the critical rate was taken as significant.

Molecules are shown by their SMILES. Marks after values point to notes of the source that are not given here.

For `COc1ccc(-c2c(Cl)c(CN3C(=O)COC3=O)nc3sc4c(c23)CC[C@H](C(N)=O)C4)cc1` [Example 4-2, (7S)-3-chloro-2-[(2,4-dioxo-1,3-oxazolidin-3-yl)methyl]-5,6,7,8-tetrahydro-4-(4-methoxyphenyl)[1]benzothieno[2,3-b]pyridine-7-carboxamide], the “Swelling suppression rate (%)” value in series [1] is reported as 82* %.

`COc1ccc(-c2c(Cl)c(CN3C(=O)CCC3=O)nc3sc4c(c23)CC[C@@H](C(N)=O)C4)cc1` (stereo in doubt) [Example 5-2, 3-chloro-2-[(2,5-dioxo-1-pyrrolidinyl)methyl]-5,6,7,8-tetrahydro-4-(4-methoxyphenyl)[1]benzothieno[2,3-b]pyridine-7-carboxamide]: the “Swelling suppression rate (%)” value in series [1] is 88* %.

By melting point is commonly meant the temperature, or range, at which the solid turns liquid. For `NC(=O)[C@H]1CCc2c(sc3nc(CN4C(=O)CSC4=O)c(Cl)c(-c4ccc(O)cc4)c23)C1` [Example 9, (7S)-3-Chloro-2-[(2,4-dioxo-1,3-thiazolidin-3-yl)methyl]-5,6,7,8-tetrahydro-4-(4-hydroxyphenyl)[1]benzothieno[2,3-b]pyridine-7-carboxamide], the melting point lay within 282 to 283 °C.

Take `COc1ccc(-c2c(Cl)c(CN3C(=O)CSC3=O)nc3sc4c(c23)CC[C@@H](C(N)=O)C4)cc1` (stereo in doubt) [Example 6-2, 3-chloro-2-[(2,4-dioxo-1,3-thiazolidin-3-yl)methyl]-5,6,7,8-tetrahydro-4-(4-methoxyphenyl)[1]benzothieno[2,3-b]pyridine-7-carboxamide]: the “Swelling suppression rate (%)” value in series [1] is listed as 87* %.

`NC(=O)[C@H]1CCc2c(sc3nc(CN4C(=O)CCC4=O)c(Cl)c(-c4ccc(O)cc4)c23)C1` [Example 8, (7S)-3-Chloro-2-[(2,5-dioxo-1-pyrrolidinyl)methyl]-5,6,7,8-tetrahydro-4-(4-hydroxyphenyl)[1]benzothieno[2,3-b]pyridine-7-carboxamide] yielded a melting point of 299 to 300 °C.

For the origin of these results see patent US20080146602A1, “Thienopyridine Derivatives, Production Method and Use Thereof” (TAKEDA PHARMACEUTICAL COMPANY LIMITED, priority 2004, published 2008).
